Test results published in ChEMBL document CHEMBL5723584 (2023).

Key:
Details in all cases: Compound concentration 1.0 uM
[1] = molecular target: Focal adhesion kinase 1 (Homo sapiens) (UniProt Q05397); assay: activity of FAK(h) at 1.0 µM in the Eurofins Kinase panel
[2] = molecular target: Tyrosine-protein kinase HCK (Homo sapiens) (UniProt P08631); assay: activity of Hck(h) at 1.0 µM in the Eurofins Kinase panel
[3] = molecular target: Serine/threonine-protein kinase D1 (Homo sapiens) (UniProt Q15139); assay: activity of PKCmu(h) at 1.0 µM in the Eurofins Kinase panel
[4] = molecular target: Eukaryotic translation initiation factor 2-alpha kinase 1 (Homo sapiens) (UniProt Q9BQI3); assay: activity of HRI(h) at 1.0 µM in the Eurofins Kinase panel
[5] = molecular target: Ephrin type-A receptor 4 (Homo sapiens) (UniProt P54764); assay: activity of EphA4(h) at 1.0 µM in the Eurofins Kinase panel
[6] = molecular target: Serine/threonine-protein kinase MARK1 (Homo sapiens) (UniProt Q9P0L2); assay: activity of MARK1(h) at 1.0 µM in the Eurofins Kinase panel
[7] = molecular target: Non-receptor tyrosine-protein kinase TYK2 (Homo sapiens) (UniProt P29597); assay: activity of TYK2(h) at 1.0 µM in the Eurofins Kinase panel
[8] = molecular target: ALK tyrosine kinase receptor (Homo sapiens) (UniProt Q9UM73); assay: activity of ALK(h) at 1.0 µM in the Eurofins Kinase panel
[9] = molecular target: Serine/threonine-protein kinase/endoribonuclease IRE1 (Homo sapiens) (UniProt O75460); assay: activity of IRE1(h) at 1.0 µM in the Eurofins Kinase panel
[10] = molecular target: Cyclin-dependent kinase-like 1 (Homo sapiens) (UniProt Q00532); assay: activity of CDKL1(h) at 1.0 µM in the Eurofins Kinase panel
[11] = molecular target: Myosin light chain kinase 2, skeletal/cardiac muscle (Homo sapiens) (UniProt Q9H1R3); assay: activity of MYLK2(h) at 1.0 µM in the Eurofins Kinase panel
[12] = molecular target: Mitogen-activated protein kinase 1 (Homo sapiens) (UniProt P28482); assay: activity of MAPK1(h) at 1.0 µM in the Eurofins Kinase panel
[13] = molecular target: Homeodomain-interacting protein kinase 1 (Homo sapiens) (UniProt Q86Z02); assay: activity of HIPK1(h) at 1.0 µM in the Eurofins Kinase panel
[14] = molecular target: Serine/threonine-protein kinase 17A (Homo sapiens) (UniProt Q9UEE5); assay: activity of DRAK1(h) at 1.0 µM in the Eurofins Kinase panel
[15] = molecular target: Serine/threonine-protein kinase VRK2 (Homo sapiens) (UniProt Q86Y07); assay: activity of VRK2(h) at 1.0 µM in the Eurofins Kinase panel
[16] = molecular target: Activin receptor type-1-like (Homo sapiens) (UniProt P37023); assay: activity of ALK1(h) at 1.0 µM in the Eurofins Kinase panel
[17] = molecular target: 5'-AMP-activated protein kinase catalytic subunit alpha-2 (Homo sapiens) (UniProt P54646); assay: activity of AMPKalpha2(h) at 1.0 µM in the Eurofins Kinase panel
[18] = molecular target: Testis-specific serine/threonine-protein kinase 1 (Homo sapiens) (UniProt Q9BXA7); assay: activity of TSSK1(h) at 1.0 µM in the Eurofins Kinase panel
[19] = molecular target: Tyrosine-protein kinase Fgr (Homo sapiens) (UniProt P09769); assay: activity of Fgr(h) at 1.0 µM in the Eurofins Kinase panel
[20] = molecular target: TGF-beta receptor type-2 (Homo sapiens) (UniProt P37173); assay: activity of TGFBR2(h) at 1.0 µM in the Eurofins Kinase panel
[21] = molecular target: Interleukin-1 receptor-associated kinase 1 (Homo sapiens) (UniProt P51617); assay: activity of IRAK1(h) at 1.0 µM in the Eurofins Kinase panel
[22] = molecular target: Calcium/calmodulin-dependent protein kinase type II subunit gamma (Homo sapiens) (UniProt Q13555); assay: activity of CaMKIIgamma(h) at 1.0 µM in the Eurofins Kinase panel
[23] = molecular target: Inhibitor of nuclear factor kappa-B kinase subunit epsilon (Homo sapiens) (UniProt Q14164); assay: activity of IKKepsilon(h) at 1.0 µM in the Eurofins Kinase panel
[24] = molecular target: Tyrosine-protein kinase Fyn (Homo sapiens) (UniProt P06241); assay: activity of Fyn(h) at 1.0 µM in the Eurofins Kinase panel
[25] = molecular target: Inhibitor of nuclear factor kappa-B kinase subunit beta (Homo sapiens) (UniProt O14920); assay: activity of IKKbeta(h) at 1.0 µM in the Eurofins Kinase panel
[26] = molecular target: Serine/threonine-protein kinase PAK 1 (Homo sapiens) (UniProt Q13153); assay: activity of PAK1(h) at 1.0 µM in the Eurofins Kinase panel
[27] = molecular target: Fibroblast growth factor receptor 2 (Homo sapiens) (UniProt P21802); assay: activity of FGFR2(h) at 1.0 µM in the Eurofins Kinase panel
[28] = molecular target: Aurora kinase A (Homo sapiens) (UniProt O14965); assay: activity of Aurora-A(h) at 1.0 µM in the Eurofins Kinase panel
[29] = molecular target: Serine/threonine-protein kinase TAO3 (Homo sapiens) (UniProt Q9H2K8); assay: activity of TAO3(h) at 1.0 µM in the Eurofins Kinase panel
[30] = molecular target: Proto-oncogene tyrosine-protein kinase Src (Homo sapiens) (UniProt P12931); assay: activity of cSRC(h) at 1.0 µM in the Eurofins Kinase panel
[31] = molecular target: Phosphatidylinositol 3-kinase C2 domain-containing subunit gamma (Homo sapiens) (UniProt O75747); assay: activity of PI3KC2gamma(h) at 1.0 µM in the Eurofins Kinase panel
[32] = molecular target: Casein kinase I isoform gamma-3 (Homo sapiens) (UniProt Q9Y6M4); assay: activity of CK1gamma3(h) at 1.0 µM in the Eurofins Kinase panel
[33] = molecular target: Serine/threonine-protein kinase Nek6 (Homo sapiens) (UniProt Q9HC98); assay: activity of NEK6(h) at 1.0 µM in the Eurofins Kinase panel
[34] = molecular target: Serine/threonine-protein kinase TAO1 (Homo sapiens) (UniProt Q7L7X3); assay: activity of TAO1(h) at 1.0 µM in the Eurofins Kinase panel
[35] = molecular target: Serine/threonine-protein kinase Sgk1 (Homo sapiens) (UniProt O00141); assay: activity of SGK(h) at 1.0 µM in the Eurofins Kinase panel
[36] = molecular target: NT-3 growth factor receptor (Homo sapiens) (UniProt Q16288); assay: activity of TrkC(h) at 1.0 µM in the Eurofins Kinase panel
[37] = molecular target: Testis-specific serine/threonine-protein kinase 4 (Homo sapiens) (UniProt Q6SA08); assay: activity of TSSK4(h) at 1.0 µM in the Eurofins Kinase panel
[38] = molecular target: Serine-protein kinase ATM (Homo sapiens) (UniProt Q13315); assay: activity of ATM(h) at 1.0 µM in the Eurofins Kinase panel
[39] = molecular target: Casein kinase I isoform gamma-1 (Homo sapiens) (UniProt Q9HCP0); assay: activity of CK1gamma1(h) at 1.0 µM in the Eurofins Kinase panel

Chain of Serine/threonine-protein kinase D1 (Homo sapiens) (Q15139 whole entry): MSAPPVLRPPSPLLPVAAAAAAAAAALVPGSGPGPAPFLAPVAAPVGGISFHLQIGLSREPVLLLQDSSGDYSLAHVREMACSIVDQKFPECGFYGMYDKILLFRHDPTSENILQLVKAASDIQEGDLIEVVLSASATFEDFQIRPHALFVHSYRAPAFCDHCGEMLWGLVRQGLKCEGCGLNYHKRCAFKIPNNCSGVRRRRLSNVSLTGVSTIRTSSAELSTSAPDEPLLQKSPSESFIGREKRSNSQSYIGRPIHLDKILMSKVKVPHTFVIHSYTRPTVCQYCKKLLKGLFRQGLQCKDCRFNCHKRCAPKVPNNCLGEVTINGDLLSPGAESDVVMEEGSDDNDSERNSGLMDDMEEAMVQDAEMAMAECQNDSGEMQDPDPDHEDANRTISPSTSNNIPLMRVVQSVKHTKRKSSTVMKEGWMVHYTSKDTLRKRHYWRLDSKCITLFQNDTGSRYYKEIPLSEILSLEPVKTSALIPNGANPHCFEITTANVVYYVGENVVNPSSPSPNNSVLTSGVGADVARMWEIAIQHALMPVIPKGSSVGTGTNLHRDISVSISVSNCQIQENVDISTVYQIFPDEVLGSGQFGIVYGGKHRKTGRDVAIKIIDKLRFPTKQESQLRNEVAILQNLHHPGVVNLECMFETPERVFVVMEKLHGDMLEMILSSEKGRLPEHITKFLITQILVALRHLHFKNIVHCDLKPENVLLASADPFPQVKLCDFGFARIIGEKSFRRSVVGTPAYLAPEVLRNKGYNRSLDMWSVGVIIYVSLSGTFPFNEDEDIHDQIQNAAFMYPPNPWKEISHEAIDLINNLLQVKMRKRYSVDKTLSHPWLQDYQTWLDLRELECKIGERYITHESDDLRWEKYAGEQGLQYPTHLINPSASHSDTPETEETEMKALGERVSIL
Chain of Serine/threonine-protein kinase Sgk1 (Homo sapiens) (O00141 whole entry): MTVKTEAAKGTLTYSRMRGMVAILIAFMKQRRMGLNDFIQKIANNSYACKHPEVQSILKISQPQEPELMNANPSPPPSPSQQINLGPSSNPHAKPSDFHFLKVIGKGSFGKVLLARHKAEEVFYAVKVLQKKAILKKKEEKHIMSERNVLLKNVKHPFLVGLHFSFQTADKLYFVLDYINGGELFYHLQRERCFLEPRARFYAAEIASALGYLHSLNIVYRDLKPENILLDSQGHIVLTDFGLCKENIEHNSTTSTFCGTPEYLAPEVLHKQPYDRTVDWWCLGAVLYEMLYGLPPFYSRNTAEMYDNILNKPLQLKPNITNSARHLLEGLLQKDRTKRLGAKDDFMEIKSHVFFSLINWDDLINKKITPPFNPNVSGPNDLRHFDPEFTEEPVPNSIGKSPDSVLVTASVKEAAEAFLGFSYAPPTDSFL
Chain of Serine/threonine-protein kinase Nek6 (Homo sapiens) (Q9HC98 whole entry): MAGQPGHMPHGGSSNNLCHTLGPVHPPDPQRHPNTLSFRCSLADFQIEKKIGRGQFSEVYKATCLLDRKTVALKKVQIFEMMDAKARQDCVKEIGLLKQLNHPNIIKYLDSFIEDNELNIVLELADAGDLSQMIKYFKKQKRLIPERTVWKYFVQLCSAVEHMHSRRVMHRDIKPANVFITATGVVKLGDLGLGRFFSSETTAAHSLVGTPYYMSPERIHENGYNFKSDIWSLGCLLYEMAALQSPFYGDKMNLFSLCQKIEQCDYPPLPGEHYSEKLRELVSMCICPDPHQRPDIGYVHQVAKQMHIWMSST
Chain of Interleukin-1 receptor-associated kinase 1 (Homo sapiens) (P51617 whole entry, looked up): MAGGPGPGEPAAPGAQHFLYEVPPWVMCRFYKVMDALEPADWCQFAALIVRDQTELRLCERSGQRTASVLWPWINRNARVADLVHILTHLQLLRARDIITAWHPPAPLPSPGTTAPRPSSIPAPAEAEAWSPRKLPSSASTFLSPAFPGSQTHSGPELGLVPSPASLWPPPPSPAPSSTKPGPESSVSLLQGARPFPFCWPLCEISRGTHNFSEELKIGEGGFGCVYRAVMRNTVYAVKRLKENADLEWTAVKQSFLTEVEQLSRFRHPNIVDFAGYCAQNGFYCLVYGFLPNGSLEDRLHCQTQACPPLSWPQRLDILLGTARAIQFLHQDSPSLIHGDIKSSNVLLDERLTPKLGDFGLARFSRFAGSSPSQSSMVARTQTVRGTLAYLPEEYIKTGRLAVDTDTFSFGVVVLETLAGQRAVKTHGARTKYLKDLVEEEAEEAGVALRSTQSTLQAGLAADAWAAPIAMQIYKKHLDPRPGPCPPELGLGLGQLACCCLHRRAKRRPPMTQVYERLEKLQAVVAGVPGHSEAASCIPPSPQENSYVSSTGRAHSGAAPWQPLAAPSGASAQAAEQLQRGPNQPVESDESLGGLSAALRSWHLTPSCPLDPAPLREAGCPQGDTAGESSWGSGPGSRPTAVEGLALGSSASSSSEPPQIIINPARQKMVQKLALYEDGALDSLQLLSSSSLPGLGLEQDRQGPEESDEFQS
Chain of Aurora kinase A (Homo sapiens) (O14965 whole entry): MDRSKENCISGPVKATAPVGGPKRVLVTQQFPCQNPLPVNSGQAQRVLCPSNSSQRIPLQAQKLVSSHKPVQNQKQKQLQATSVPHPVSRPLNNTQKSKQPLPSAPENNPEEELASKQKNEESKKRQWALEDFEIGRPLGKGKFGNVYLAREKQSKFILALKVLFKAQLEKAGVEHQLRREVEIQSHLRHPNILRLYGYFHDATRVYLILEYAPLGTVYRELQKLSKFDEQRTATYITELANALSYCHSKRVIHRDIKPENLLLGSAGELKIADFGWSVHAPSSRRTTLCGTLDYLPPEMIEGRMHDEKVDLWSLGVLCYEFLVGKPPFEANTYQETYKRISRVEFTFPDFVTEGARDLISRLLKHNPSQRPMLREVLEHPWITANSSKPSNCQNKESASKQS
Chain of Serine/threonine-protein kinase/endoribonuclease IRE1 (Homo sapiens) (O75460 19-977 limits assumed): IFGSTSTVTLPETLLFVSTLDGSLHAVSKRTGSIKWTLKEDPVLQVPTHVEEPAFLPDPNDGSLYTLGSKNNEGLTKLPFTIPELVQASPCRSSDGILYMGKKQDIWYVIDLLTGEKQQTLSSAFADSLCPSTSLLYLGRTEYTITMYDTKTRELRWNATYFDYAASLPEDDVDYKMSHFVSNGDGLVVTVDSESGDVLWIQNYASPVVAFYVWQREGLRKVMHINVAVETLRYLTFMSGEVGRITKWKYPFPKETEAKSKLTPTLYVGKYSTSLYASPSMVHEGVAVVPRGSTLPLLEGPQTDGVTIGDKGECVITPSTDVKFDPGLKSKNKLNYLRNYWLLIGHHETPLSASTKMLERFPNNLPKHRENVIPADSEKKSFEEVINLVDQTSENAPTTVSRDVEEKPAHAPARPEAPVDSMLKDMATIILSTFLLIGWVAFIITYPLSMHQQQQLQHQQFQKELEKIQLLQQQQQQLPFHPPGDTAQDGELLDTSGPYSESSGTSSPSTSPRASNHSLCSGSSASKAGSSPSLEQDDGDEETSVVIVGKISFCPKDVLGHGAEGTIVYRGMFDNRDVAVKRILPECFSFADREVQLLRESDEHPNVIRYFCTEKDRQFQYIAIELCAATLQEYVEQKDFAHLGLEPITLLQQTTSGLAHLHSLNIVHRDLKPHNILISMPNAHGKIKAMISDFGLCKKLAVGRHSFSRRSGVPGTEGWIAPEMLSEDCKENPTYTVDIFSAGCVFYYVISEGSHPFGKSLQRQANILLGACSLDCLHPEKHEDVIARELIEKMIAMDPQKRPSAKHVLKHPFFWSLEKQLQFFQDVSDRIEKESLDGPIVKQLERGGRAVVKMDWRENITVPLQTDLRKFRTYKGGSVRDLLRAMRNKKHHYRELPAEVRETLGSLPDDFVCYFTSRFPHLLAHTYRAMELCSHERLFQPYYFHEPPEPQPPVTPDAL
Chain of Activin receptor type-1-like (Homo sapiens) (P37023 whole entry): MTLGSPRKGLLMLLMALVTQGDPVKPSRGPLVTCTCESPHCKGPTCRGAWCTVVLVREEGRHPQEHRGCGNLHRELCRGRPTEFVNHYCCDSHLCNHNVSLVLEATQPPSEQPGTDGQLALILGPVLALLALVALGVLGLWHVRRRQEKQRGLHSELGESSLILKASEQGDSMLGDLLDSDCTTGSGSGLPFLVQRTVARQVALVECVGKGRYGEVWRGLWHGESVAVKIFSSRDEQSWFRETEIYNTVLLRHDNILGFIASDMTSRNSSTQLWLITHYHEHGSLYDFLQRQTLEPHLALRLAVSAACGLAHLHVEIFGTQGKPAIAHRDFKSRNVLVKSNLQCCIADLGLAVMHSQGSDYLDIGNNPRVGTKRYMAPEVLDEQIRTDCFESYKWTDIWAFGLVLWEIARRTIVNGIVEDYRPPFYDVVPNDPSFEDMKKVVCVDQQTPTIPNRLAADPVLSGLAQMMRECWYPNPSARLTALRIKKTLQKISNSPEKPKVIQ
Chain of Tyrosine-protein kinase Fyn (Homo sapiens) (P06241 2-537 limits assumed): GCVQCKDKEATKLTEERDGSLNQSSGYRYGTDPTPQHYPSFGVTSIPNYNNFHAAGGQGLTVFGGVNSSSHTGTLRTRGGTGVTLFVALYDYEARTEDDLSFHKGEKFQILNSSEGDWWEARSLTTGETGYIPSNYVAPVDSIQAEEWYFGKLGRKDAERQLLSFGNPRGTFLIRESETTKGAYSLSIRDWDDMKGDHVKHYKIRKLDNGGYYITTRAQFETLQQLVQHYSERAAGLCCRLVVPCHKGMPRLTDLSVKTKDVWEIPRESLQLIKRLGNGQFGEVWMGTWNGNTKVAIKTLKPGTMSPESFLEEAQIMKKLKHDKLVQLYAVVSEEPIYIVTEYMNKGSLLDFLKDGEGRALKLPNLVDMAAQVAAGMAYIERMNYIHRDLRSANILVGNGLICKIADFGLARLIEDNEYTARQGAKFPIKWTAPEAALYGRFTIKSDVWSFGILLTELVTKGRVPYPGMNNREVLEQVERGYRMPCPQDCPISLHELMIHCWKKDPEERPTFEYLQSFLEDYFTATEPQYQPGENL

activity [1]: 96%
activity [2]: 99%
activity [3]: 109%
activity [4]: 80%
activity [5]: 92%
activity [6]: 106%
activity [7]: 103%
activity [8]: 77%
activity [9]: 99%
activity [10]: 99%
activity [11]: 76%
activity [12]: 95%
activity [13]: 100%
activity [14]: 80%
activity [15]: 100%
activity [16]: 94%
activity [17]: 117%
activity [18]: 116%
activity [19]: 97%
activity [20]: 96%
activity [21]: 95%
activity [22]: 106%
activity [23]: 87%
activity [24]: 100%
activity [25]: 99%
activity [26]: 95%
activity [27]: 89%
activity [28]: 97%
activity [29]: 100%
activity [30]: 93%
activity [31]: 103%
activity [32]: 84%
activity [33]: 86%
activity [34]: 83%
activity [35]: 113%
activity [36]: 86%
activity [37]: 117%
activity [38]: 103%
activity [39]: 101%
Compound: Cc1cc2c(-c3ccc(NC(=O)[C@H](N)CC(C)(C)C)cc3C)ccnc2[nH]1
